Values joined by “and” are separate entries in the source; they are usually repeats but may differ in a detail not shown here. Equal values may be shown once.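 Dose response: 5 concentrations. Exposure: 48 h. Format: 96-well plates. Endpoint: linear interpolation; highest concentration if not reached. The concentration for 50% growth inhibition is given as GI50. TGI marks complete inhibition of growth.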
How the values were obtained:
Assay in all cases: DTP human tumour cell line panel, 48 h
U251 CNS = tested on: U251 CNS
RPMI-8226 leukemia = tested on: RPMI-8226 leukemia
OVCAR-8 ovarian = tested on: OVCAR-8 ovarian
SK-OV-3 ovarian = tested on: SK-OV-3 ovarian
SNB-75 CNS = tested on: SNB-75 CNS
NCI-H226 lung = tested on: NCI-H226 lung
OVCAR-4 ovarian = tested on: OVCAR-4 ovarian
UACC-62 melanoma = tested on: UACC-62 melanoma
SF-295 CNS = tested on: SF-295 CNS
MCF7 breast = tested on: MCF7 breast

SMILES	TGI (U251 CNS) [µM]	TGI (RPMI-8226 leukemia)	TGI (OVCAR-8 ovarian) [µM]	TGI (SK-OV-3 ovarian) [µM]	TGI (SNB-75 CNS)	TGI (NCI-H226 lung)	TGI (OVCAR-4 ovarian) [µM]	TGI (UACC-62 melanoma) [µM]	TGI (SF-295 CNS) [µM]	GI50 (U251 CNS) [µM]	GI50 (RPMI-8226 leukemia) [µM]	GI50 (MCF7 breast) [µM]	TGI (MCF7 breast)	GI50 (OVCAR-8 ovarian) [µM]	GI50 (SK-OV-3 ovarian)	GI50 (SNB-75 CNS) [µM]	GI50 (NCI-H226 lung) [µM]	GI50 (UACC-62 melanoma) [µM]	GI50 (SF-295 CNS) [µM]	GI50 (OVCAR-4 ovarian) [µM]
CC1=C(C(=O)Nc2cccc(Cl)c2)C(c2ccc([N+](=O)[O-])cc2)C(C(=O)Nc2cccc(Cl)c2)=C(C)N1	56	83.4 µM	> 100	48.9	91.1 µM	84.5 µM	> 100	37.2	58.4											
CC(C)C[C@H](NC(=O)[C@H]1O[C@@H]1C(=O)O)C(=O)NCCc1ccc(O)cc1	> 100	> 100 µM	> 100	> 100	> 100 µM	> 100 µM		> 100	> 100	> 100	> 100	> 100	> 100 µM	> 100	> 100 µM	> 100	> 100	> 100	> 100	
CC(/C(=N/NC(=O)C(N)=O)c1c(Cl)ccc(Cl)c1O)C1(O)C(=O)Nc2ccccc21 (stereo not given)	> 100		> 100	> 100	> 100 µM	> 100 µM	92.3	> 100	> 100											
COc1ccc2c(c1)c(-c1nc(-c3c[nH]c4ncccc34)cs1)cn2CCCCN1CCOCC1	3.33	4.72 µM		5.27	2.85 µM	9.91 µM	5.53	3.93	4.07	1.73	1.99	1.56	3.56 µM		2.37 µM	1.31	2.46	1.87	1.93	2.21
CN(CC(=O)O)c1ccc(/C=C/c2ccnc3ccccc23)cc1	75.2	57.5 µM	> 100	91.6	86.8 µM			52.2	54.5				35.2 µM							
CC(=O)NCCSC(=O)c1ccccc1	0.759	2.26 µM	0.81	14.8	12.4 µM	0.413 µM	> 42.8	0.0786	0.83											
C=C1C(=O)OC2C1CC[C@H](C)C13OC(=O)CC1[C@@]23C (stereo not given in full)	> 100	> 100 µM	> 100	> 100	> 100 µM	> 100 µM		> 100	> 100											
COc1ccc(-c2nnc(SCC(=O)Nc3ccc(/C(C)=N\O)cc3)n2-c2ccccc2)cc1OC	19.6	> 100 µM	> 100	13.7		> 100 µM	> 100	> 100	37.7	3.61	> 100	> 100	> 100 µM	7.36	2.73 µM		7.28	> 100	3.39	> 100
COC1(O)C(=O)c2ccccc2OC1(OC)c1ccccc1 (stereo not given)	> 100	> 100 µM	> 100		> 100 µM	> 100 µM	> 100	> 100	> 100				> 100 µM							
O=c1c2cccc3cccc(c4oc5c6cccc7cccc(c(=O)c5c14)c76)c32	17.4	24.1 µM	16.1	> 31.6	21.7 µM	> 31.6 µM		17.6	> 31.6											
OCC(O)C(OC1OC(CO)C(O)C(O)C1O)c1nn(-c2ccccc2)c2nc3cc(Cl)c(Cl)cc3cc12 (stereo not given)	> 100	> 100 µM	> 100	> 100	> 100 µM		> 100	> 100	> 100											
O=C1CC(c2ccc3c(c2)OCO3)Nc2cc3c(cc21)OCO3 (stereo not given)	> 100		> 100	44.2		> 100 µM	> 100	> 100	6.81	0.544		0.364	> 100 µM	0.84	0.485 µM		13.9	0.673	0.348	1.04
COC(C(=O)C(O)C(C)O)C1Cc2cc3cc(OC4CC(OC(C)=O)C(OC5CC(O)C(OC)C(C)O5)C(C)O4)cc(O)c3c(O)c2C(=O)C1OC1CC(OC2CC(OC3CC(C)(O)C(OC(=O)C(C)C)C(C)O3)C(O)C(C)O2)C(O)C(C)O1 (stereo not given)		0.202 µM and 0.14 µM			0.0626 µM and 0.0109 µM and 0.0075 µM	0.148 µM and 0.0893 µM						0.0465	0.327 µM and < 0.215 µM		0.0217 µM and 0.0423 µM	0.00157		0.00129		
COCC1N=C(c2cc(OC)c(OC)c(OC)c2-c2cc3c(cc2C2OCCCO2)OCO3)O[C@H]1c1ccccc1 (stereo not given in full)	> 100	> 100 µM	> 100	> 100	> 100 µM	> 100 µM	> 100	> 100	> 100											
Nc1ccn(CCO)c(=O)n1	> 100	> 100 µM	> 100	> 100	> 100 µM	> 100 µM	> 100	> 100	> 100											
O=C1OC(CC(=O)c2ccc(Cl)cc2Cl)C(Cl)=C1Cl (stereo not given)	> 72.8	> 73 µM	> 60.2	> 63.4	> 61.1 µM	> 89.5 µM	> 58.4	40	> 100											
Cc1ccc(/C=C2/SC(Nc3nc(-c4nc(NC5=NC(=O)/C(=C\c6ccc(C)cc6)S5)sc4C)c(C)s3)=NC2=O)cc1	38.9	> 15 µM	> 31.6			> 30.4 µM		1.71	0.874	0.322	1.27	1.01	> 50 µM	1.66			2.32	0.0759		
Fc1cccc2cc3ccc4cccc5ccc(c12)c3c45	> 100		> 100	> 100	> 100 µM	> 100 µM	> 100	> 100	> 100											
CCCCCCCCC(=O)N(C)C1C2CN3CCC(O2)C13 (stereo not given)	> 100	> 100 µM		> 100	> 100 µM	> 100 µM	> 100	> 100	> 100											
Cc1ccc2c(c1C)-c1c(ccc(C)c1C)C(=O)C2=O	12.8	0.559 µM	0.905	8.41		5.91 µM	0.554	1.68	2.95				0.809 µM							

From PubChem BioAssay (NCI)
